Here are results for 22 compounds from patent publication US20240307382A1, “MODULATORS OF THE INTEGRATED STRESS PATHWAY” (Calico Life Sciences LLC, priority 2017, published 2024).

The structures appear in SMILES notation.

This test has as its system HEK293T cells carrying the ATF4 luciferase reporter. Briefly: ATF4-Luc assay (ATF4 luciferase reporter, tunicamycin-treated cells). Format: cell-based. The settings on record: Homo sapiens, HEK-293T, 1 μg/mL tunicamycin, 7 hours. The essentials:
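A stable HEK293T reporter line was made by placing the full-length human ATF4 5′-UTR ahead of a firefly luciferase sequence without its start methionine, delivered by retroviral transduction and puromycin selection. Cells were seeded at 30,000 per well in polylysine-coated 384-well plates, exposed next day to 1 μg/mL tunicamycin plus compound for 7 hours, and luminescence was read with One Glo.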
Turning to `O=C(COc1ccc(Cl)c(Cl)c1)NC12CCC(NC(=O)c3cnc4cc(F)ccc4n3)(CC1)C[C@@H]2O` [Compound 1005, N-{(3S)-4-[2-(3,4-dichlorophenoxy)acetamido]-3-hydroxybicyclo[2.2.2]octan-1-yl}-6-fluoroquinoxaline-2-carboxamide], the 50% effective concentration (EC50) was under 50 nM.
The same measure for `O=C(COc1ccc(Cl)c(Cl)c1)NC12CC(NC(=O)c3ccc(Cl)cn3)(C1)C2` [Compound 691, 5-chloro-N-{3-[2-(3,4-dichlorophenoxy)acetamido]bicyclo[1.1.1]pentan-1-yl}pyridine-2-carboxamide]: under 50 nM; for `O=C(COc1ccc(Cl)c(F)c1)NC12CC(NC(=O)c3cnc(C(F)(F)F)o3)(C1)C2` [Compound 1044, N-{3-[2-(4-chloro-3-fluorophenoxy)acetamido]bicyclo[1.1.1]pentan-1-yl}-2-(trifluoromethyl)-1,3-oxazole-5-carboxamide]: 50 to 250 nM; for `Cn1nc(C(=O)NC23CCC(NC(=O)COc4ccc(Cl)c(F)c4)(CC2)[C@@H](O)C3)cc1-c1ccccc1` [Compound 1037, N-{(3S)-4-[2-(4-chloro-3-fluorophenoxy)acetamido]-3-hydroxybicyclo[2.2.2]octan-1-yl}-1-methyl-5-phenyl-1H-pyrazole-3-carboxamide]: under 50 nM.
To `O=C(COc1ccc(F)cc1)NC12CCC(NC(=O)c3cc(C(F)F)no3)(CC1)C[C@@H]2O` [Compound 1099, 3-(difluoromethyl)-N-{(3S)-4-[2-(4-fluorophenoxy)acetamido]-3-hydroxybicyclo[2.2.2]octan-1-yl}-1,2-oxazole-5-carboxamide] belongs 50 to 250 nM; to `O=C(COc1ccc(Cl)c(Cl)c1)NC12CCC(NC(=O)c3cc(CO)ccn3)(CC1)C[C@@H]2O` [Compound 1003, N-{(3S)-4-[2-(3,4-dichlorophenoxy)acetamido]-3-hydroxybicyclo[2.2.2]octan-1-yl}-4-(hydroxymethyl)pyridine-2-carboxamide], under 50 nM; to `Cc1cc(OCC(=O)NC23CCC(NC(=O)c4cc(C(F)F)no4)(CC2)C[C@@H]3O)ccc1Cl` [Compound 1101, N-{(3S)-4-[2-(4-chloro-3-methylphenoxy)acetamido]-3-hydroxybicyclo[2.2.2]octan-1-yl}-3-(difluoromethyl)-1,2-oxazole-5-carboxamide], under 50 nM.
To `Cc1nn(C)cc1C(=O)NC12CCC(NC(=O)COc3ccc(Cl)c(F)c3)(CC1)[C@@H](O)C2` [Compound 1108, N-{(3S)-4-[2-(4-chloro-3-fluorophenoxy)acetamido]-3-hydroxybicyclo[2.2.2]octan-1-yl}-1,3-dimethyl-1H-pyrazole-4-carboxamide] belongs 50 to 250 nM.
In the case of `O=C(COc1ccc(Cl)c(Cl)c1)NC12CC(NC(=O)c3cc(O)c4cc(Cl)ccc4n3)(C1)C2` [Compound 971, 6-chloro-N-{3-[2-(3,4-dichlorophenoxy)acetamido]bicyclo[1.1.1]pentan-1-yl}-4-hydroxyquinoline-2-carboxamide], the EC50 was under 50 nM.
Turning to `O=C(COc1ccc(Cl)c(Cl)c1)NC12CCC(NC(=O)c3cccnc3)(CC1)CC2` [Compound 994, N-{4-[2-(3,4-dichlorophenoxy)acetamido]bicyclo[2.2.2]octan-1-yl}pyridine-3-carboxamide], the EC50 was in the range of 250 to 1000 nM.
On to `O=C(COc1ccc(OC(F)(F)F)cc1)NC12CCC(NC(=O)c3ccc(Cl)c(F)c3)(CC1)[C@@H](O)C2` [Compound 1083, 4-chloro-3-fluoro-N-[(2S)-2-hydroxy-4-{2-[4-(trifluoromethoxy)phenoxy]acetamido}bicyclo[2.2.2]octan-1-yl]benzamide], for which the half-maximal effective concentration (EC50) is over 2000 nM.
The same measure for `Cn1nc(-c2ccccc2)cc1C(=O)NC12CCC(NC(=O)COc3ccc(Cl)c(F)c3)(CC1)[C@@H](O)C2` [Compound 1020, N-{(3S)-4-[2-(4-chloro-3-fluorophenoxy)acetamido]-3-hydroxybicyclo[2.2.2]octan-1-yl}-1-methyl-3-phenyl-1H-pyrazole-5-carboxamide]: under 50 nM; for `O=C(COc1ccc(Cl)c(F)c1)NC12CC(Nc3cccc(-n4ccccc4=O)n3)(C1)C2` [Compound 954, 2-(4-chloro-3-fluorophenoxy)-N-{3-[(2-oxo-2H-[1,2′-bipyridin]-6′-yl)amino]bicyclo[1.1.1]pentan-1-yl}acetamide]: over 2000 nM.
To `O=C(COc1ccc(Cl)c(Cl)c1)NC12CCC(NC(=O)c3cc(C4CC4)no3)(CC1)C[C@@H]2O` [Compound 1013, 3-cyclopropyl-N-{(3S)-4-[2-(3,4-dichlorophenoxy)acetamido]-3-hydroxybicyclo[2.2.2]octan-1-yl}-1,2-oxazole-5-carboxamide] belongs under 50 nM.
With `O=C(COc1ccc(Cl)c(F)c1)NC12CCC(NC(=O)c3coc(C(F)F)n3)(CC1)C[C@@H]2O` [Compound 969, N-{(3S)-4-[2-(4-chloro-3-fluorophenoxy)acetamido]-3-hydroxybicyclo[2.2.2]octan-1-yl}-2-(difluoromethyl)-1,3-oxazole-4-carboxamide], the concentration giving a half-maximal response (EC50) was under 50 nM.
The same measure for `O=C(COc1ccc(Cl)c(F)c1)NC12CC(NC(=O)c3cc(F)cc4c3OCOC4)(C1)C2` [Compound 1085, N-{3-[2-(4-chloro-3-fluorophenoxy)acetamido]bicyclo[1.1.1]pentan-1-yl}-6-fluoro-2H,4H-1,3-benzodioxine-8-carboxamide]: 1000 to 2000 nM.
Regarding `O=C(COc1ccc(Cl)c(F)c1)NC12CCC(NC(=O)c3cnc(C(F)F)cn3)(CC1)C[C@@H]2O` [Compound 986, N-{(3S)-4-[2-(4-chloro-3-fluorophenoxy)acetamido]-3-hydroxybicyclo[2.2.2]octan-1-yl}-5-(difluoromethyl)pyrazine-2-carboxamide], the 50% effective concentration (EC50) was under 50 nM.
The same measure for `O=C(COc1ccc(Cl)c(F)c1)NC12CC(NC(=O)c3ncccc3CO)(C1)C2` [Compound 1091, N-{3-[2-(4-chloro-3-fluorophenoxy)acetamido]bicyclo[1.1.1]pentan-1-yl}-3-(hydroxymethyl)pyridine-2-carboxamide]: 250 to 1000 nM.
The same measure for `O=C(COc1ccc(Cl)c(F)c1)NC12CCC(NC(=O)c3ccc4c(c3)OC(F)(F)O4)(CC1)NC2=O` [Compound 1047, N-{4-[2-(4-chloro-3-fluorophenoxy)acetamido]-3-oxo-2-azabicyclo[2.2.2]octan-1-yl}-2,2-difluoro-2H-1,3-benzodioxole-5-carboxamide]: over 2000 nM; for `Cc1ccc(C(=O)NC23CCC(NC(=O)COc4ccc(Cl)c(Cl)c4)(CC2)[C@@H](O)C3)nc1` [Compound 1029, N-{(3S)-4-[2-(3,4-dichlorophenoxy)acetamido]-3-hydroxybicyclo[2.2.2]octan-1-yl}-5-methylpyridine-2-carboxamide]: under 50 nM; for `Cc1nc(C(=O)NC23CCC(NC(=O)COc4ccc(Cl)c(F)c4)(CC2)[C@H](O)C3)n[nH]1` [Compound 1062, N-{(3R)-4-[2-(4-chloro-3-fluorophenoxy)acetamido]-3-hydroxybicyclo[2.2.2]octan-1-yl}-5-methyl-1H-1,2,4-triazole-3-carboxamide]: 250 to 1000 nM.
For the compound `O=C(COc1ccc(Cl)c(F)c1)NC12CCC(NC(=O)c3cc(CO)ccn3)(C1)C2` [Compound 333, N-{4-[2-(4-chloro-3-fluorophenoxy)acetamido]bicyclo[2.1.1]hexan-1-yl}-4-(hydroxymethyl)pyridine-2-carboxamide], the EC50 lay within 1000 to 2000 nM.
